According to patent publication US11725010B2, “Polyheterocyclic compounds as METTL3 inhibitors” (Storm Therapeutics Limited, priority 2019, dated 2023):
Where two headings read alike, the source gives them in different places.

Legend:
METTL3/14 [1] = molecular target: T1, METTL3/14 (Homo sapiens (Human), UniProt Q86U44); assay: biochemical
METTL3/14 [2] = molecular target: T1, METTL3/14
Caov-3 cells = assay: Caov3 CTG proliferation assay; format: cell-based; conditions: Homo sapiens
Protocol: CTG Assay (Caov3 Cell Line)
Upon treatment, Coav-3 cells were incubated for 10 min at RT with the CellTiter-Glo reagent (G7571, Promega). Measurement of the luminescence signal was performed on a microplate reader (Ensight, PerkinElmer).
Caov3 CTG Assay—Proliferation Assay

KASUMI-1 cells = assay: Kasumi cell assay (CellTiter-Glo cell growth); format: cell-based; conditions: Homo sapiens
Protocol: Upon treatment, Kasumil cells were incubated for 10 min at RT with the CellTiter-Glo reagent (G7571, Promega). Measurement of the luminescence signal was performed on a microplate reader (Ensight, PerkinElmer).

[3] = Caov-3, treated for 120 hours, CellTiter-Glo luminescence, read-out: Caov3 cells IC50
[4] = Kasumi 1, treated for 120 hours, CellTiter-Glo luminescence, read-out: KASUMI1 cells IC50

T1 sequence (Q86U44 whole entry): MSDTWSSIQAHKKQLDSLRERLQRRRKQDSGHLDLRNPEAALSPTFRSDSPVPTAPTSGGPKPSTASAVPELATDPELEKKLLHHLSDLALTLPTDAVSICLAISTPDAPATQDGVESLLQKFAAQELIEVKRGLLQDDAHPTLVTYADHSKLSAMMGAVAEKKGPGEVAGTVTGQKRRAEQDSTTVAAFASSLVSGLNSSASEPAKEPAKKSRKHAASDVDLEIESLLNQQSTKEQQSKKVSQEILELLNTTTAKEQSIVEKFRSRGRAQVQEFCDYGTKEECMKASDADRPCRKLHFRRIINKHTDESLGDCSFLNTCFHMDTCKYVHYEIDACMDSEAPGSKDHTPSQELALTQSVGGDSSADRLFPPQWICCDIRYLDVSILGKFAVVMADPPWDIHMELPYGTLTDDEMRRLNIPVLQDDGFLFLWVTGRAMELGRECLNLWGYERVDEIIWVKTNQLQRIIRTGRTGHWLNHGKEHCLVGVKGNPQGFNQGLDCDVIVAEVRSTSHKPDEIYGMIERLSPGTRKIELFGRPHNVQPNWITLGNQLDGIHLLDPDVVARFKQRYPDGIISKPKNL
T1 sequence (Q9HCE5 whole entry partner): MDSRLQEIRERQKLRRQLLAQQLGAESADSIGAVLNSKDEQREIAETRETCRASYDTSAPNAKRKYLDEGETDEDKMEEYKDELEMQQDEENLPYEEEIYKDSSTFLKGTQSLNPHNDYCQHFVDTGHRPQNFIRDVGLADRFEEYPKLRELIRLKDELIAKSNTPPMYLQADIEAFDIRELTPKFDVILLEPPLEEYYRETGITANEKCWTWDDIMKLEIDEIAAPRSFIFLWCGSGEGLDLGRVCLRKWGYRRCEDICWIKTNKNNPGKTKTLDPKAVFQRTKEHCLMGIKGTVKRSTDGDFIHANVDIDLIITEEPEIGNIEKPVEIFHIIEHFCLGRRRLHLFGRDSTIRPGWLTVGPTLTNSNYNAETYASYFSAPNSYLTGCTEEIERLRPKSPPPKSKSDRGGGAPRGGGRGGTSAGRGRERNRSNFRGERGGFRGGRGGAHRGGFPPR

| IC50 (METTL3/14 [1]) | SMILES | IC50 (METTL3/14 [2]) | IC50 (Caov-3 cells; [3]) | IC50 (KASUMI-1 cells; [4]) | IC50 (Caov-3 cells; Caov-3, 120 h, read-out: Caov3 cells IC50 nM) | IC50 (KASUMI-1 cells; Kasumi 1, 120 h, read-out: KASUMI1 cells IC50 nM) |
| --- | --- | --- | --- | --- | --- | --- |
| 19.3 nM | c1cc(-n2cc(Cc3ccc4cc(CNCC5CCC5)[nH]c4c3)nn2)c2cncn2c1 [Example 144, (cyclobutyl-methyl)({6-[(1-{imidazo[1,5-a]pyridin-8-yl}-1H-1,2,3-triazol-4-yl)methyl]-1H-indol-2-yl}methyl) amine] | – | – | – | – | – |
| – | O=C(NCc1cc2[nH]c(CNCC3CCC3)cc2cc1F)c1cc(=O)n2ccccc2n1 [Compound 41, N-[[2-[(cyclobutylmethylamino)methyl]-5-fluoro-1H-indol-6-yl]methyl]-4-oxo-pyrido[1,2-a]pyrimidine-2-carboxamide] | 6.1 nM | 192 nM | 309 nM | – | – |
| – | O=C(NCc1cc2[nH]c(CNCC34CC(F)(C3)C4)cc2cn1)c1cc(=O)n2ccccc2n1 [Compound 132, N-[(2-{[({3-fluorobicyclo[1.1.1]pentan-1-yl}methyl)amino]methyl}-1H-pyrrolo[3,2-c]pyridin-6-yl)methyl]-4-oxo-4H-pyrido[1,2-a]pyrimidine-2-carboxamide] | 6.1 nM | 268 nM | 785 nM | – | – |
| – | c1cc(-c2cn(Cc3cc4[nH]c(CNCC5CCC5)cc4cn3)nn2)c2cn[nH]c2c1 [Example 60, N-(cyclobutylmethyl)-1-[6-[[4-(1H-indazol-4-yl)triazol-1-yl]methyl]-1H-pyrrolo[3,2-c]pyridin-2-yl]methanamine] | 6.1 nM | 423 nM | 2180 nM | – | – |
| – | O=C(NCc1ccc2cc(CN3CC4(C3)CC(F)(F)C4)[nH]c2c1)c1cc(=O)n2ccccc2n1 [Compound 94, N-{[2-({6,6-difluoro-2-azaspiro[3.3]heptanean-2-yl}methyl)-1H-indol-6-yl]methyl}-4-oxo-4H-pyrido[1,2-a]pyrimidine-2-carboxamide] | 6.1 nM | 681 nM | 2240 nM | – | – |
| – | CC12CC(CNCc3cc4ccc(CNC(=O)c5cc(=O)n6ccccc6n5)cc4[nH]3)(C1)C2 [Compound 77, N-[(2-{[({3-methylbicyclo[1.1.1]pentan-1-yl}methyl)amino]methyl}-1H-indol-6-yl)methyl]-4-oxo-4H-pyrido[1,2-a]pyrimidine-2-carboxamide] | 6.1 nM | 701 nM | 1760 nM | – | – |
| – | O=C(NCc1ccc2cc(CN3CC4(CC(F)C4)C3)[nH]c2c1)c1cc(=O)n2ccccc2n1 [Compound 93, N-{[2-({6-fluoro-2-azaspiro[3.3]heptanean-2-yl}methyl)-1H-indol-6-yl]methyl}-4-oxo-4H-pyrido[1,2-a]pyrimidine-2-carboxamide] | 6.1 nM | 453 nM | 1330 nM | – | – |
| – | O=C(NCc1ccc2cc(CN3CC4CCCC4C3)[nH]c2c1)c1cc(=O)n2ccccc2n1 (stereo not shown) [Compound 106, N-{[2-({octahydrocyclopenta[c]pyrrol-2-yl}methyl)-1H-indol-6-yl]methyl}-4-oxo-4H-pyrido[1,2-a]pyrimidine-2-carboxamide] | 6.1 nM | 911 nM | 1830 nM | – | – |
| – | O=C(NCc1cc2[nH]c(CN3CCC4(CCC4)C3)cc2cn1)c1cc(=O)n2ccccc2n1 [Compound 145, N-((2-((6-azaspiro[3.4]octan-6-yl)methyl)-1H-pyrrolo[3,2-c]pyridin-6-yl)methyl)-4-oxo-4H-pyrido[1,2-a]pyrimidine-2-carboxamide] | < 6.1 nM | 201 nM | 717 nM | – | – |
| – | CC1(C)CCN(Cc2cc3ccc(CNC(=O)c4cc(=O)n5ccccc5n4)cc3[nH]2)C1 [Compound 92, N-({2-[(3,3-dimethylpyrrolidin-1-yl)methyl]-1H-indol-6-yl}methyl)-4-oxo-4H-pyrido[1,2-a]pyrimidine-2-carboxamide] | 6.1 nM | 598 nM | 1610 nM | – | – |
| – | O=C(NCc1ccc2cc(CN3CC4(CCC4)C3)[nH]c2c1)c1cc(=O)n2ccccc2n1 [Compound 67, N-[[2-(2-azaspiro[3.3]heptanean-2-ylmethyl)-1H-indol-6-yl]methyl]-4-oxo-pyrido[1,2-a]pyrimidine-2-carboxamide] | 6.1 nM | 482 nM | 1720 nM | – | – |
| – | FC12CC(CNCc3cc4ccc(Cn5cc(-c6cccn7cncc67)nn5)cc4[nH]3)(C1)C2 [Example 124, ({3-fluorobicyclo[1.1.1]pentan-1-yl}methyl)({6-[(4-{imidazo[1,5-a]pyridin-8-yl}-1H-1,2,3-triazol-1-yl)methyl]-1H-indol-2-yl}methyl)amine] | 6.1 nM | 266 nM | 662 nM | – | – |
| – | CC1(CNCc2cc3ccc(CNC(=O)c4cc(=O)n5ccccc5n4)cc3[nH]2)CCC1 [Compound 117, N-{[2-({[(1-methylcyclobutyl)methyl]amino}methyl)-1H-indol-6-yl]methyl}-4-oxo-4H-pyrido[1,2-a]pyrimidine-2-carboxamide] | 6.1 nM | 502 nM | 1730 nM | – | – |
| – | O=C(NCc1cnc2cc(CNCC34CC(C3)C4)[nH]c2c1)c1cc(=O)n2ccccc2n1 [Example 126, N-[(2-{[({bicyclo[1.1.1]pentan-1-yl}methyl)amino]methyl}-1H-pyrrolo[3,2-b]pyridin-6-yl)methyl]-4-oxo-4H-pyrido[1,2-a]pyrimidine-2-carboxamide] | 6.1 nM | 523 nM | 3070 nM | – | – |
| – | O=C(NCc1ccc2cc(CNCC3CCC3)[nH]c2c1)c1cc(=O)n2ccccc2n1 [Example 2, N-[(2-{[(cyclobutylmethyl)amino]methyl}-1H-indol-6-yl)methyl]-4-oxo-4H-pyrido[1,2-a]pyrimidine-2-carboxamide] | 6.1 nM | 237 nM | 587 nM | – | – |
| – | O=C(NCc1ccc2cc(CN3CCC4(CCCC4)C3)[nH]c2c1)c1cc(=O)n2ccccc2n1 [Compound 113, N-{[2-({2-azaspiro[4.4]nonan-2-yl}methyl)-1H-indol-6-yl]methyl}-4-oxo-4H-pyrido[1,2-a]pyrimidine-2-carboxamide] | 6.1 nM | 575 nM | 1650 nM | – | – |
| – | CC12CC(CNCc3cc4cnc(CNC(=O)c5cc(=O)n6ccccc6n5)cc4[nH]3)(C1)C2 [Compound 129, N-[(2-{[({3-methylbicyclo[1.1.1]pentan-1-yl}methyl)amino]methyl}-1H-pyrrolo[3,2-c]pyridin-6-yl)methyl]-4-oxo-4H-pyrido[1,2-a]pyrimidine-2-carboxamide] | 6.1 nM | 699 nM | 2900 nM | – | – |
| – | c1cc(-c2cn(Cc3cc4[nH]c(CN5CCC6(CCC6)C5)cc4cn3)nn2)c2cncn2c1 [Example 155, 2-((6-azaspiro[3.4]octan-6-yl)methyl)-6-((4-(imidazo[1,5-a]pyridin-8-yl)-1H-1,2,3-triazol-1-yl)methyl)-1H-pyrrolo[3,2-c]pyridine] | < 6.1 nM | 473 nM | 547 nM | – | – |
| – | O=C(NCc1ccc2cc(CNCC34CC(F)(C3)C4)[nH]c2c1)c1cc(=O)n2ccccc2n1 [Compound 23, N-[(2-{[({3-fluorobicyclo[1.1.1]pentan-1-yl}methyl)amino]methyl}-1H-indol-6-yl)methyl]-4-oxo-4H-pyrido[1,2-a]pyrimidine-2-carboxamide] | 6.1 nM | 80.1 nM | 263 nM | – | – |
| – | O=C(NCc1ccc2cc(CN[C@H]3CCC[C@H]3O)[nH]c2c1)c1cc(=O)n2ccccc2n1 [Compound 38, N-{[2-({[(1S,2R)-2-hydroxycyclopentyl]amino}methyl)-1H-indol-6-yl]methyl}-4-oxo-4H-pyrido[1,2-a]pyrimidine-2-carboxamide] | 6.1 nM | – | – | 458 nM | 2310 nM |
| – | CCC1(CC)CN(Cc2cc3ccc(CNC(=O)c4cc(=O)n5ccccc5n4)cc3[nH]2)C1 [Compound 102, N-({2-[(3,3-diethylazetidin-1-yl)methyl]-1H-indol-6-yl}methyl)-4-oxo-4H-pyrido[1,2-a]pyrimidine-2-carboxamide] | 6.1 nM | 230 nM | 525 nM | – | – |
| – | CC1(NCc2cc3ccc(CNC(=O)c4cc(=O)n5ccccc5n4)cc3[nH]2)CCCC1 [Example 114, N-[(2-{[(1-methylcyclopentyl)amino]methyl}-1H-indol-6-yl)methyl]-4-oxo-4H-pyrido[1,2-a]pyrimidine-2-carboxamide] | 6.1 nM | 679 nM | 1460 nM | – | – |
